Reference: patent publication US9624214B2, “Amino-substituted imidazo[1,2-a]pyridinecarboxamides and their use” (BAYER PHARMA AKTIENGESELLSCHAFT, priority 2012, dated 2017)

target: T1, recombinant guanylate cyclase reporter cell line (Rattus norvegicus, UniProt P19686+P20595); experiment: B-2. Action on recombinant guanylate cyclase reporter cell line; assay type: cell-based; settings: MEC = minimal effective concentration; in some cases mean values from individual determinations
T1 construct: expressed in transfected cells
T1 sequence (P20595 1-619): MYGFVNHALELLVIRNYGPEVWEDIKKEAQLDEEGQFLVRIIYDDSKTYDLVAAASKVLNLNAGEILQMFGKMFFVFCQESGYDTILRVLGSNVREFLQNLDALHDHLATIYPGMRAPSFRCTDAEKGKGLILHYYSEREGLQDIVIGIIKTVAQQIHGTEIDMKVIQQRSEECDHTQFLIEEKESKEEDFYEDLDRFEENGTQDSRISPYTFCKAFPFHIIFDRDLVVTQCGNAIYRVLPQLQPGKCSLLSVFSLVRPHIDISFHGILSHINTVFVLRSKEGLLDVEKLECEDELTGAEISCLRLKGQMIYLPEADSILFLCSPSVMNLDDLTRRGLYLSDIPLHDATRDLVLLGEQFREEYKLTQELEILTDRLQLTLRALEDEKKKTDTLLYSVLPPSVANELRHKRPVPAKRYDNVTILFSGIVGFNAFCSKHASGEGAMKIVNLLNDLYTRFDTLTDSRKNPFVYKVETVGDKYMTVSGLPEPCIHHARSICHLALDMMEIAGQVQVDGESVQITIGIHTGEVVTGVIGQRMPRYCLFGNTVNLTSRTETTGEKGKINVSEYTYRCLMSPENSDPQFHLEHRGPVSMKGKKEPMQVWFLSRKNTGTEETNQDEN
T1 sequence (P19686 1-690): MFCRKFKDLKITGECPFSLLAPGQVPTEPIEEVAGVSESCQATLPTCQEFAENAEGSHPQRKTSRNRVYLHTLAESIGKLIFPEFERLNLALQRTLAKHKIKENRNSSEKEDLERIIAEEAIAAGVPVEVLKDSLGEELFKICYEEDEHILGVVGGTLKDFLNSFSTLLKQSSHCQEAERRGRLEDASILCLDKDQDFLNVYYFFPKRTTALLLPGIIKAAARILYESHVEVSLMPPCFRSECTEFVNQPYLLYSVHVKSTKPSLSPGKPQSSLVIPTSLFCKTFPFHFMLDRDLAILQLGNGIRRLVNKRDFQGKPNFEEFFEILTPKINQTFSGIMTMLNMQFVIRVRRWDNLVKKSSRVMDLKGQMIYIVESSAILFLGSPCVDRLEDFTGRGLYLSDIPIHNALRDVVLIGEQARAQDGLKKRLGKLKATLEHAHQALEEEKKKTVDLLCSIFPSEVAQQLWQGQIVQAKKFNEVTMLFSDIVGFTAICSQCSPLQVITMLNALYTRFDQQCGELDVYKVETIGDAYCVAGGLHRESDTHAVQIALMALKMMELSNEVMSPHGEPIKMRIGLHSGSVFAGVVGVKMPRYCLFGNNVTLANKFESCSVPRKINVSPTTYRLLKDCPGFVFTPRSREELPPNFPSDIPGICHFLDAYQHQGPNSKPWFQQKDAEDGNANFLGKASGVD
In short: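 Compounds are tested on whole cells carrying a guanylate cyclase reporter construct. The lowest concentration giving an effect is recorded as the MEC.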

SMILES	MEC
Cc1nc2c(OCc3c(F)cccc3F)cccn2c1C(=O)NCC1CCc2ccccc2N1 (racemic) [Example 250, rac-8-[(2,6-Difluorobenzyl)oxy]-2-methyl-N-(1,2,3,4-tetrahydroquinolin-2-ylmethyl)imidazo[1,2-a]pyridine-3-carboxamide]	1.00 µM
Cc1cc(OCCC(C)C)c2nc(C)c(C(=O)NCC(C)(N)CC(C)C)n2c1 (racemic) [Example 249, rac-N-(2-Amino-2,4-dimethylpentyl)-2,6-dimethyl-8-(3-methylbutoxy)imidazo[1,2-a]pyridine-3-carboxamide]	1.00 µM
Cc1nc2c(OCc3c(F)cccc3F)cc(Cl)cn2c1C(=O)NCC(C)(C)N1CCCC1 [Example 148, 6-chloro-8-[(2,6-difluorobenzyl)oxy]-2-methyl-N-[2-methyl-2-(pyrrolidin-1-yl)-propyl]imidazo[1,2-a)pyridine-3-carboxamide]	1.00 µM
Cc1nc2c(OCc3c(F)cccc3F)cccn2c1C(=O)NC(C)[C@H](C)N (single isomer, unassigned) [Example 175]	1.00 µM
Cc1nc2c(OCc3c(F)cccc3F)cccn2c1C(=O)NC(CN)c1ccc(F)c(F)c1 (racemic) [Example 11, rac-N-[2-Amino-1-(3,4-difluorophenyl)ethyl]-8-[(2,6-difluorobenzyl)oxy]-2-methylimidazo[1,2-a]pyridine-3-carboxamide]	0.30 µM
Cc1nc2c(OCc3c(F)cccc3F)cc(Cl)cn2c1C(=O)NCCN1CCC(F)(F)CC1 [Example 151, 6-chloro-8-[(2,6-difluorobenzyl)oxy]-N-[2-(4,4-difluoropiperidin-1-yl)ethyl]-2-methylimidazo[1,2-a]pyridine-3-carboxamide]	0.10 µM
Cc1nc2c(OCc3c(F)cccc3F)cccn2c1C(=O)NC(CN)c1ccc(F)cc1 (racemic) [Example 9, rac-N-[2-Amino-1-(4-fluorophenyl)ethyl]-8-[(2,6-difluorobenzyl)oxy]-2-methylimidazo[1,2-a]-pyridine-3-carboxamide]	0.30 µM
CCCC(C)(N)CNC(=O)c1c(C)nc2c(OCc3c(F)cccc3F)cccn12 (stereo not drawn) [Example 318, ent-N-(2-amino-2-methylpentyl)-8-[(2,6-difluorobenzyl)oxy]-2-methylimidazo[1,2-a]pyridine-3-carboxamide]	0.30 µM

Results, then the compound that gave them:

MEC	SMILES
0.10 µM	C#Cc1cc(OCc2c(F)cccc2F)c2nc(C)c(C(=O)NCC(C)(N)CCC)n2c1 (stereo not drawn) [Example 356, ent-N-(2-amino-2-methylpentyl)-8-[(2,6-difluorobenzyl)oxy]-6-ethynyl-2-methylimidazo[1,2-a]pyridine-3-carboxamide]
0.30 µM	Cc1nc2c(OCc3c(F)cccc3F)cc(Cl)cn2c1C(=O)NCC(C)(N)C(F)(F)F (single isomer, unassigned) [Example 237, ent-N-(2-Amino-3,3,3-trifluoro-2-methylpropyl)-6-chloro-8-[(2,6-difluorobenzyl)oxy]-2-methylimidazo[1,2-a]pyridine-3-carboxamide]
0.65 µM	Cc1nc2c(OCc3c(F)cccc3F)cc(Cl)cn2c1C(=O)NC(C)(C)CN [Example 24, N-(1-amino-2-methylpropan-2-yl)-6-chloro-8-[(2,6-difluorobenzyl)oxy]-2-methylimidazo[1,2-a]pyridine-3-carboxamide]
0.3 µM	Cc1cc(OCc2c(F)cccc2F)c2nc(C)c(C(=O)NCC(C)(N)CF)n2c1 (single isomer, unassigned; enantiomer a) [Example 283, ent-N-(2-amino-3-fluoro-2-methylpropyl)-8-[(2,6-difluorobenzyl)oxy]-2,6-dimethylimidazo[1,2-a]pyridine-3-carboxamide (Enantiomer A)]
0.30 µM	Cc1cc(OCc2c(F)cccc2F)c2nc(C)c(C(=O)NC3(C)CCC3(C)N)n2c1 (single isomer, unassigned; enantiomer a) [Example 336, ent-N-[(2-amino-1,2-dimethylcyclobutyl]-8-[(2,6-difluorobenzyl)oxy]-2,6-dimethylimidazo[1,2-a]pyridine-3-carboxamide (Enantiomer A)]
